The values below are quoted from earlier work in US20030068374A1, “Sustained release preparations of physiologically active compound hardly soluble in water and production process and use of the same” (priority 2000, published 2003).

The conditions of the series: in water, 18° C.

As for `[O]=[Zn]` [zinc oxide], the solubility is 0.42 mg/100 ml.
